# Results from patent US20040152672A1, “Indole compounds useful for the treatment of cancer” (priority 2000, published 2004).
# Where two headings read alike, the source gives them in different places. Residues, ends and D or L forms follow the SMILES beside them. *: point of attachment. Cbz = O=C(OCc1ccccc1)*; CH2F = FC*
# How the values were obtained:
# [1] = in vivo
# Alva-31 [2] = experiment: Cytotoxicity by MTT assay, confirmed by FACS propidium iodide uptake
# MDA-MB-231 [3] = experiment: as above
# A549 [4] = experiment: as above
# PPAR-γ = PPAR-γ (Mus musculus, UniProt P37238); conditions: RAW264.7, 24 hours; concentrations readily achieved in human plasma; FIG. 13
# Sequence of PPAR-γ (P37238 31-505 limits assumed): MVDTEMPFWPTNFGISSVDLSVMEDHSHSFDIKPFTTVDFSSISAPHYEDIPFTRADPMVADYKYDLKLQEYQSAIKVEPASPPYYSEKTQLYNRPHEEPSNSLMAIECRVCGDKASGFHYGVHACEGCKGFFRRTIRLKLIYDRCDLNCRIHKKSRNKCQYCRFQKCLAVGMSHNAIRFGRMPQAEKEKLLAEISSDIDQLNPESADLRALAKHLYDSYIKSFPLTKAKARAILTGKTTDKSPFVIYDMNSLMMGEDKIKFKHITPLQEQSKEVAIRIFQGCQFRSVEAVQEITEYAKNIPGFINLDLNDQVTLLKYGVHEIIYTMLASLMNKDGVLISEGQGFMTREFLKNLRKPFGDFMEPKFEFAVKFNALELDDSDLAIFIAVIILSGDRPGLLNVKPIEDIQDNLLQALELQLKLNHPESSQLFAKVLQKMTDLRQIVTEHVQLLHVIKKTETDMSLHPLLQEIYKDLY
# Mcl-1 = Mcl-1 level in LNCaP cells by SDS-PAGE immunoblot; conditions: for effect on the etodolac-induced fall in Mcl-1 levels: co- or pre-incubation with etodolac, MG-132 at 5.0 μM
# adjuvant polyarthritis = conditions: reduction in paw volume of rats with adjuvant polyarthritis, prostaglandin synthetase inhibitory activity; Demerson et al.; cited from earlier work
# LNCaP-FGC [5] = experiment: Cytotoxicity by MTT assay, confirmed by FACS propidium iodide uptake
# PC-3 [6] = experiment: as above
# [7] = cited from earlier work
# OVCAR-3 [8] = experiment: Cytotoxicity by MTT assay, confirmed by FACS propidium iodide uptake
# HCT-116 [9] = experiment: as above
# PC-3 [10] = system: PC-3
# LNCaP-FGC [11] = system: LNCaP-FGC
# normal B cells = experiment: Viability of normal B lymphocytes (anti-CD19) by DiOC6 fluorescence; assay type: cell-based, human; conditions: 1.0 mM etodolac, 24 hours
# Experimental: Peripheral blood lymphocytes from a normal donor were cultured with 1.0 mM etodolac for 24 hours. Then B lymphocytes were identified by staining with anti-CD19 antibody, and viability was assessed by DiOC6 fluorescence. […] When the same viability assay was run with purified CLL cells from the peripheral blood of a CLL patient, the results were different. […] More than 95% of the treated cells were malignant B lymphocytes.
# CLL cells [12] = experiment: Viability of CLL cells in culture, erythrocin B exclusion assay; assay type: cell-based, human; conditions: for killing of CLL cells by either drug alone: fludarabine 10 nM or etodolac 10 μM alone, 48 hours, FIG. 3
# Bag-1 = Bag-1 level in LNCaP cells by SDS-PAGE immunoblot; conditions: for effect on the etodolac-induced fall in Bag-1 levels: co- or pre-incubation with etodolac, MG-132 at 5.0 μM
# OVCAR-3 [13] = system: OVCAR-3
# Alva-31 [14] = system: Alva-31
# CLL cells [15] = experiment: In vitro survival of CLL cells taken from patients before and after etodolac tablets; assay type: in vivo, human; conditions: patient two
# Experimental: Heparinized blood was taken from two patients ([…]) with CLL. Then each patient immediately took a 400 mg etodolac tablet, and a second tablet 12 hours later. After another 12 hours, a second blood specimen was obtained. The CLL cells were isolated and their survival in vitro were compared in RPMI 1640 medium containing 10% autologous plasma, as described in Example 1. The circles show CLL cells before etodolac treatment. In FIGS. 6-7, the upward pointing triangles represent CLL cell viability after etodolac treatment, wherein the cells are dispersed in medium containing the pre-treatment plasma. The downward pointing triangles are CLL cells after treatment maintained in medium with the post-treatment plasma.
# FIG. 8 is a flow cytometric analysis of CLL cells from patient two before and after etodolac treatment. […]
# To conduct the flow cytometric analysis, the mitochondrial transmembrane potential was analyzed by 3,3′ dihexyloxacarboncyanide iodide (DiOC6), cell membrane permeability by propidium iodide (PI)3 and mitochondrial respiration by dihydrorhodamine 123 (DHR) (See J. A. Royall et al., Arch. Biochem. Biophys., 302, 348 (1993)). […] Cells were analyzed within 30 minutes in a Becton Dickinson FAC-Scalibur cytofluorometer. After suitable […], fluorescence was recorded at different wavelength: DiOC6 and DHR at 525 nm (Fl-1) and PI at 600 nm (FL-3).
# MDA-MB-231 [16] = system: MDA-MB-231
# [17] = system: normal peripheral blood lymphocytes (PBL); experiment: Viability of normal PBLs, erythrocin B exclusion assay; assay type: cell-based, human; conditions: FIG. 1; only at this concentration
# HCT-116 [18] = system: HCT-116
# A549 [19] = system: A549
# Bcl-2 and Bax = Bcl-2 and Bax levels in LNCaP cells; conditions: etodolac incubation; data not shown
# MRP = MRP (Homo sapiens, UniProt P33527); conditions: WO98/18490; cited from earlier work
# Sequence of MRP (P33527 whole entry): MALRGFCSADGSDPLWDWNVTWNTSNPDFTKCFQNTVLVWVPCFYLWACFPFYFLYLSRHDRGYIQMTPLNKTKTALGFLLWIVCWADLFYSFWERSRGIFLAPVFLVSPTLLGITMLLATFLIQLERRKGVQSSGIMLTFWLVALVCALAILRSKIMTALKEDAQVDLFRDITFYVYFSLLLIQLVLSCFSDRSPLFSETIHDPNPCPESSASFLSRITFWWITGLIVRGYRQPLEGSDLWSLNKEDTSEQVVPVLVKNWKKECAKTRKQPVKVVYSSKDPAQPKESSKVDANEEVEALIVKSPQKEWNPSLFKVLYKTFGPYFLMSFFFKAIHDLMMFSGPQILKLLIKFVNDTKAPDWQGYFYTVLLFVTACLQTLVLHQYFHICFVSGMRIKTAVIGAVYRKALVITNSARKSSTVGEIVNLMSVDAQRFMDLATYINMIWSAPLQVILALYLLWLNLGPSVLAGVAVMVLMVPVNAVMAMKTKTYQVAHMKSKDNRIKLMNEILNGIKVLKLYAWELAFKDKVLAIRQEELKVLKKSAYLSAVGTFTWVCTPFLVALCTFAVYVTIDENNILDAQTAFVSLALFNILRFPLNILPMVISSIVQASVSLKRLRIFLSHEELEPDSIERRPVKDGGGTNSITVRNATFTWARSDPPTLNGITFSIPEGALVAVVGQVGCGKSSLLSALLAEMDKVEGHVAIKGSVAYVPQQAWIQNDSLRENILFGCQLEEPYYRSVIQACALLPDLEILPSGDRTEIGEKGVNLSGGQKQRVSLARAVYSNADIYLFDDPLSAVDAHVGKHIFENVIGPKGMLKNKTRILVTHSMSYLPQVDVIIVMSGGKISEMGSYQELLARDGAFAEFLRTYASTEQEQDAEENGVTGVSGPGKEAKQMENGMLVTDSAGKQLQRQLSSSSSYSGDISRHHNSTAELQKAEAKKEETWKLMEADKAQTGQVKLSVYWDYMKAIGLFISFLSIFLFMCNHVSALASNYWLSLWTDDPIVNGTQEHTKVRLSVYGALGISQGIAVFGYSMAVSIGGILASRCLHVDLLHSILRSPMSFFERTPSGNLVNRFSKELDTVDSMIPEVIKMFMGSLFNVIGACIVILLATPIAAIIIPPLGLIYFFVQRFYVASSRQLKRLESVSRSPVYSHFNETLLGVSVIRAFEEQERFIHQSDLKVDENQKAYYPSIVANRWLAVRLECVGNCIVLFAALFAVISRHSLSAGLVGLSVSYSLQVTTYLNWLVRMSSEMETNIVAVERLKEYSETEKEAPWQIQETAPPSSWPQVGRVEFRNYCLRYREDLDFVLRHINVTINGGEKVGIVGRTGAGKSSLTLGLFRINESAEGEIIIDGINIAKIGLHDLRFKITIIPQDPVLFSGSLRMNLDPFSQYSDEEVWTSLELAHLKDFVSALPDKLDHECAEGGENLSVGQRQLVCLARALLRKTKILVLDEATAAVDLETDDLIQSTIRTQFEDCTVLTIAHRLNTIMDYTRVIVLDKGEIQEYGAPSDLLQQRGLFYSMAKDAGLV
# B-cell CLL cells = conditions: Bellosillo et al., Blood 1998; cited from earlier work
# prostate cancer = conditions: TRAMP mouse; Wechter et al. 2000; cited from earlier work
# [20] = 100 μM etodolac, as early as two hours
# Excerpt for prostate cancer tissue: The tissues were next fixed in 4% paraformaldehyde in PBS, embedded in paraffin, sectioned and stained with hematoxylin and eosin.
smiles,measurement,setting,value
CCc1cccc2c3c([nH]c12)[C@@](CC)(CC(=O)O)OCC3 [Etodolac R],maximal plasma concentration in a human subject (should yield),[1],about 400 μM
same,IC50,"Alva-31 [2]; read-out: IC50 cytotoxicity, Alva-31 (prostate), MTT after three days continuous exposure",> 1000 µM
same,IC50,"MDA-MB-231 [3]; read-out: IC50 cytotoxicity, MDA-MB-231 (breast), MTT after three days continuous exposure",> 1000 µM
same,IC50,"A549 [4]; read-out: IC50 cytotoxicity, A549 (lung), MTT after three days continuous exposure",> 1000 µM
same,activation of PPAR-γ reporter gene construct,PPAR-γ,activated
same,Mcl-1 degradation by the enantiomers,Mcl-1,induced Mcl-1 degradation at equivalent concentrations
same,anti-inflammatory activity,adjuvant polyarthritis,No anti-inflammatory activity was discernible
same,IC50,"LNCaP-FGC [5]; read-out: IC50 cytotoxicity, LNCaP-FGC (prostate), MTT after three days continuous exposure",270 ± 50 µM
same,IC50,"PC-3 [6]; read-out: IC50 cytotoxicity, PC-3 (prostate), MTT after three days continuous exposure",150 ± 15 µM
same,maximum plasma concentration,[7]; after a 200 mg dose in six elderly patients,about 33 μM
same,"plasma concentrations, fold higher than those of the S-enantiomer",[7]; after the administration of RS-etodolac,about 10 fold
same,IC50,"OVCAR-3 [8]; read-out: IC50 cytotoxicity, OVCAR-3 (ovarian), MTT after three days continuous exposure",> 1000 µM
same,IC50,"HCT-116 [9]; read-out: IC50 cytotoxicity, HCT-116 (colon), MTT after three days continuous exposure",280 ± 20 µM
"CCc1cccc2c3c([nH]c12)C(CC)(CC(=O)O)OCC3 (stereo not drawn) [Etodolac R/S, 1,8-diethyl-1,3,4,9-tetrahydro[3,4-6]indole-1-acetic acid]",Phenoty,"Alva-31 [2]; Alva-31, sensitivity of the cell line to etodolac",Resistant
same,IC50,PC-3 [10],340 ± 20 µM
same,Phenoty,"MDA-MB-231 [3]; MDA-MB-231, sensitivity of the cell line to etodolac",Resistant
same,Phenoty,"A549 [4]; A549, sensitivity of the cell line to etodolac",Resistant
same,IC50,SW260,1000 ± 120 µM
same,Phenoty,"SW260; SW260, sensitivity of the cell line to etodolac",Resistant
same,IC50,LNCaP-FGC [11],400 ± 35 µM
same,viability of normal B cells compared to control cultures,normal B cells,did not reduce the viability
same,CLL cells killed,"CLL cells [12]; 200 μM, 48 hour exposure, FIG. 2",50%
same,killing of CLL cells by either drug alone,CLL cells [12],ineffective
same,Mcl-1 levels,Mcl-1; [20],fell
same,Bag-1 levels,Bag-1; [20],fell
same,IC50,OVCAR-3 [13],> 1000 µM
same,IC50,Alva-31 [14],> 1000 µM
same,"apoptotic CLL cells (low DiOC6 staining, left lower box) after versus before treatment","CLL cells [15]; flow cytometry, detectable at 12 hours, increases after 24 hours, FIG. 8",much higher after the drug
same,in vitro survival of CLL cells after treatment compared to before treatment,"CLL cells [15]; two 400 mg tablets 12 hours apart, FIG. 6",shortened survival
same,effect on normal basal cells in prostatectomy samples,prostate cancer tissue,did not affect
same,Phenoty,"LNCaP-FGC [5]; LNCaP-FGC, sensitivity of the cell line to etodolac",Sensitive
same,IC50,MDA-MB-231 [16],> 1000 µM
same,Phenoty,"PC-3 [6]; PC-3, sensitivity of the cell line to etodolac",Sensitive
same,concentration at which significant death of normal PBLs occurred,[17],800 µM
same,elimination half-life,[7]; in vivo,6 to 8 h
same,IC50,HCT-116 [18],450 ± 15 µM
same,Phenoty,"OVCAR-3 [8]; OVCAR-3, sensitivity of the cell line to etodolac",Resistant
same,IC50,A549 [19],> 1000 µM
same,Phenoty,"HCT-116 [9]; HCT-116, sensitivity of the cell line to etodolac",Sensitive
same,Bcl-2 and Bax levels,Bcl-2 and Bax,did not alter
CC(C)C[C@@H](C=O)NC(=O)[C@H](CC(C)C)NC(=O)[C@H](CC(C)C)NC(=O)OCc1ccccc1 [MG-132] (Cbz-Leu-Leu-Leu-aldehyde),effect on the etodolac-induced fall in Mcl-1 levels,Mcl-1,prevented
same,effect on the etodolac-induced fall in Bag-1 levels,Bag-1,prevented
Nc1nc(F)nc2c1ncn2[C@@H]1O[C@H](CO)[C@@H](O)[C@@H]1O [fludarabine],killing of CLL cells by either drug alone,CLL cells [12],ineffective
CN1C(C(=O)Nc2ccccn2)=C(O)c2ccccc2S1(=O)=O [piroxicam],increase of the potency of the anti-cancer drug,MRP,inactive
CC(NC(=O)C(NC(=O)OCc1ccccc1)C(C)C)C(=O)NC(CC(=O)O)C(=O)CF (stereo not drawn) [Z-VAD] (Cbz-Val-Ala-Asp-CH2F; configuration not given here),effect on the etodolac-induced fall in Mcl-1 levels,Mcl-1,did not prevent
same,effect on the etodolac-induced fall in Bag-1 levels,Bag-1,did not prevent
CCc1cccc2c3c([nH]c12)C(CC)(CC(=O)O)OCC3 (stereo not drawn) [Etodolac S],IC50,PC-3 [10],800 µM
same,IC50,LNCaP-FGC [11],220 ± 20 µM
same,activation of PPAR-γ reporter gene construct,PPAR-γ,activated
same,Mcl-1 degradation by the enantiomers,Mcl-1,induced Mcl-1 degradation at equivalent concentrations
same,anti-inflammatory activity,adjuvant polyarthritis,almost all of the anti-inflammatory activity of the racemate
same,IC50,OVCAR-3 [13],> 1000 µM
same,IC50,Alva-31 [14],> 1000 µM
same,IC50,MDA-MB-231 [16],> 1000 µM
same,IC50,HCT-116 [18],420 ± 50 µM
same,IC50,A549 [19],> 1000 µM
CC(=O)Oc1ccccc1C(=O)O [aspirin],viability of B-cell CLL cells in vitro,B-cell CLL cells,reduced the viability
C[C@@H](C(=O)O)c1ccc(-c2ccccc2)c(F)c1 [R-flurbiprofen],progression of prostate cancer,prostate cancer,inhibited progression of prostate cancer
COc1ccc2cc([C@H](C)C(=O)O)ccc2c1 [Naproxen],increase of the potency of the anti-cancer drug,MRP,inactive
O=C(O)c1ccccc1O [salicylate],viability of B-cell CLL cells in vitro,B-cell CLL cells,reduced the viability
